The assay concerns acetyl-α-tubulin (HDAC6 main target) in U251-MG cells. The assay is described as follows: Western blot of acetyl-α-tubulin and cleaved PARP in U251-MG. The class given is cell-based, human. Conditions: 10 nM, 48 h. How it is done: Immunoblots were performed following standard procedures. […] Detection was performed by chemiluminiscence using NOVEX ECL Chemi Substrate (ThermoFisher).
(A western blot detects proteins with antibodies after separation by electrophoresis.)

Each structure is given as a SMILES string.

With `O=C(CCCCCCC(=O)Nc1ccccc1)NO` [SAHA, Suberoylanilide hydroxamic acid], the α-tubulin hyperacetylation result was “did not”.

The record behind these values is PMC7265429, “Characterization of a new small-molecule inhibitor of HDAC6 in glioblastoma” (Cell Death & Disease, 2020).
